Results on two molecules are retold here after paper PMC9013686, “Inter-individual variation in chlorpyrifos toxicokinetics characterized by physiologically based kinetic (PBK) and Monte Carlo simulation comparing human liver microsome and Supersome™ cytochromes P450 (CYP)-specific kinetic data as model input” (Archives of Toxicology, 2022).

Holding throughout (type): in vitro ADME
The target of data set [1] is T1, CYP1A2 in pooled HLMs (Homo sapiens, UniProt P05177).
T1 construct: the native CYPs present in HLM; tissue Corning (Amsterdam, The Netherlands); host or cells: pooled human liver microsomes, 150 donors, mixed gender
T1 sequence (P05177 1-516): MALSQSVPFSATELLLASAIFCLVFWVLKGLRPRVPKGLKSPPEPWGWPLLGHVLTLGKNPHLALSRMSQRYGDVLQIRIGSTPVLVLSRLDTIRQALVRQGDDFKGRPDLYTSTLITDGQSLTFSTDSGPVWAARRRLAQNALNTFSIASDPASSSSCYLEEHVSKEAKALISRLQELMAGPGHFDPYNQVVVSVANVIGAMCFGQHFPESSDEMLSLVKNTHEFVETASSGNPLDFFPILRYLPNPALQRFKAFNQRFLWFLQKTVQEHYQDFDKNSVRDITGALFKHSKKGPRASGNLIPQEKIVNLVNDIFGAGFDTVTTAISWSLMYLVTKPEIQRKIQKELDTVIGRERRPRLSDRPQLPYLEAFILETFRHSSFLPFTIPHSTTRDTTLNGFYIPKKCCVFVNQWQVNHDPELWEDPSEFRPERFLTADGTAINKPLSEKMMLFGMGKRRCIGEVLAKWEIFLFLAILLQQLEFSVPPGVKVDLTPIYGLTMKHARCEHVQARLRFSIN
The data set is described as follows: Pooled HLM incubation with CYP1A2 probe substrate (ISEF determination). The note with it: acetaminophen formation. The procedure: (§1) To normalize for differences in intrinsic CYP activity between Supersome™ and pooled HLMs and enable scaling of the activities to the in vivo situation, CYP-specific ISEF values need to be established. […] The incubation method was similar as used for the CPF kinetic incubation assay described above, except that certain incubation conditions were replaced by the conditions listed in Table 1. The samples obtained were analyzed by UPLC-PDA for acetaminophen, 4-hydroxymephenytoin, and 6β-hydroxytestosterone formation catalyzed by 1A2, 2C19 and 3A4, or LC–MS/MS for (±)-hydroxybupropion formation catalyzed by 2B6.
(§2) As mentioned before, the in vitro apparent kinetic parameters (Vmax and Km) for pathway 1 and pathway 2 in the HLM-based approach, and pathway 3 in both approaches were all obtained directly from reported studies using pooled HLMs (Buratti et al. [2003]; Sams et al. [2004]; Zhao et al. [2019]). Therefore, no extra calculations were required to define these parameters. […] It should be noted that the kinetic parameters for pathway 4 used in the two approaches were calculated as mean of the kinetic parameters (Vmax and Km) obtained using 25 individual HP samples (with correction for total protein concentration of each plasma sample).

In data set [2] the target is CYP3A4 (Homo sapiens, UniProt P08684). In words: Supersome CYP3A4 kinetic incubations. Further details: purchased Corning (Amsterdam, The Netherlands); host or cells: baculovirus-transfected insect cells. The procedure:
The final incubations were carried out in 50 mM Tris–HCl (pH 7.4) containing 5 mM MgCl2, 1 mM EDTA (as an A-esterase PON1 inhibitor) (Bizoń and Milnerowicz [2018]), 50 µM iso-OMPA (as a B-esterases inhibitor) (Lane et al. [2006]), Supersome™ isoform (at final concentration of 0.005 nmol CYP/ml for 1A2, 0.001 nmol CYP/ml for 2B6, 0.01 nmol CYP/ml for 2C19, and 0.01 nmol CYP/ml for 3A4) and CPF at different final concentrations (0.05, 0.1, 0.25, 0.5, 1, 5 and 10 µM for 1A2, 0.05, 0.1, 0.25, 0.5, 1, 5 10 and 25 µM for 2B6, 1, 2.5, 5, 10, 25 and 50 µM for 2C19, and 0.5, 1, 2.5, 5, 10, 25 and 50 µM for 3A4), which were added from 100 times concentrated stock solutions in ACN. After 1 min preincubation in a 37 °C water bath, 5 µl NADPH (final concentration 1 mM) was added to the incubation system. Control incubations were performed by replacing NADPH with the same amount of Tris–HCl (pH 7.4). The total volume of the incubation mixtures was 200 µl. The incubations lasted for 2 min at 37 °C and were terminated by addition of 50 µl ice cold ACN and subsquently put on ice. After that, samples were centrifuged at 16,000 g (4 ℃) for 5 min and supernatants of samples were separated into two equal portions for Ultra-Performance Liquid Chromatography-Photodiode Array (UPLC-PDA) and Liquid Chromatography Mass Spectrometry (LC–MS/MS) analysis, respectively.
as §1
As mentioned before, the in vitro apparent kinetic parameters (Vmax and Km) for pathway 1 and pathway 2 in the HLM-based approach, and pathway 3 in both approaches were all obtained directly from reported studies using pooled HLMs (Buratti et al. [2003]; Sams et al. [2004]; Zhao et al. [2019]). Therefore, no extra calculations were required to define these parameters. The kinetic parameters for the ISEF calculation, pathway 1 and 2 in the Supersome™-based approach, and pathway 4 in both approaches (25 individuals) were all obtained by fitting the experimental data to the Michaelis–Menten model using GraphPad (GraphPad Prism 5.0 software, San Diego, CA, USA). It should be noted that the kinetic parameters for pathway 4 used in the two approaches were calculated as mean of the kinetic parameters (Vmax and Km) obtained using 25 individual HP samples (with correction for total protein concentration of each plasma sample).
The in vivo Kmi values were assumed to be equal to the apparent Kmi(app) values (µM) obtained in the in vitro incubations, while the in vivo Vmaxi for each CYP isoform was derived from their corresponding apparent CYP isoform Vmaxi(app) (pmol/min/pmolCYP) using Eq. 3:3 Vmaxi=Vmaxiapp×CYPiabundance×ISEF×60×MPL×1000×VL/1,000,000,

Data set [3] addresses T2, CYP3A4 in pooled HLMs (Homo sapiens, UniProt P08684).
T2 construct: the native CYPs present in HLM; tissue Corning (Amsterdam, The Netherlands); host or cells: pooled human liver microsomes, 150 donors, mixed gender
In words: Pooled HLM incubation with CYP3A4 probe substrate (ISEF determination). The following applies: 6β-hydroxytestosterone formation. Here is the method: as §1, §2

Chain of CYP3A4 (P08684 2-503 limits assumed): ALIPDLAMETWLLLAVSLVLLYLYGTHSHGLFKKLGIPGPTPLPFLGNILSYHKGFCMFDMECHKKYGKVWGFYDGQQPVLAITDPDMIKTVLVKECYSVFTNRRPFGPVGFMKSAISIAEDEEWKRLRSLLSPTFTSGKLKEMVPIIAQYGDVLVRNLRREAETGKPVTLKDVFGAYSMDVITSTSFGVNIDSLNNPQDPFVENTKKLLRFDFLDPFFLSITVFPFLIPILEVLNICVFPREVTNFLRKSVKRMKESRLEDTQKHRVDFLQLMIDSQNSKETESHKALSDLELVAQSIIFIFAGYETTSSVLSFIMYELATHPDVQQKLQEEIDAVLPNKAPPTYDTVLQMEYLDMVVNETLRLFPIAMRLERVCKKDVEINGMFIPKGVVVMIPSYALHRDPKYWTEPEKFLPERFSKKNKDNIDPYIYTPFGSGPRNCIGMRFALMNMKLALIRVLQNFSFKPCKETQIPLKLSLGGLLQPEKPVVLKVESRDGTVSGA
T2 sequence (P08684 2-503): as the sequence (P08684 2-503 limits assumed) above

`CCOc1ccc(NC(C)=O)cc1` [Phenacetin, phenacetin]: the “Vmax (pooled HLMs)” value in data set [1] is 0.15 nmol/min/mg microsomal protein.
On to `C[C@]12CC[C@H]3[C@@H](CCC4=CC(=O)CC[C@@]43C)[C@@H]1CC[C@@H]2O` [Testosterone, testosterone, reference compound], for which the “Vmax (Supersome)” value in data set [2] (6β-hydroxytestosterone formation, Supersome CYP3A4) is 1179 pmol/min/pmol CYP. Besides, in data set [2] (CYP3A4, calculated on the basis of Eq. 4 from probe substrate Vmax in pooled HLMs and Supersome), the ISEF was 0.11. Moreover, the “Vmax (pooled HLMs)” value in data set [3] is 17.29 nmol/min/mg microsomal protein.
